Where “and” joins values, the source holds several entries; their conditions need not be identical. Equal values may be shown once.
Experiments:
[1] = system: PC-3 cells; experiment: Cell growth assay (5-day course); type: cell-based, human; conditions: for optical density / Relative proliferation rate mean / Relative proliferation rate: PC-3; for optical density / Relative proliferation rate: replicates
[2] = system: 22Rv1 cells; experiment: Anti-proliferation activity assay (CCK8, 72 h); type: cell-based, human; conditions: for Relative proliferation rate (%) mean / Relative proliferation rate (%) / optical density: 22Rv1; for Relative proliferation rate (%) / optical density: replicates
[3] = system: 22Rv1 cells; experiment: Invasion assay (transwell); type: cell-based, human; conditions: for Cell invasion (cell number): replicates
[4] = system: DU145 xenograft; experiment: H&E and Ki67 staining of xenograft tumor tissues; type: in vivo, BALB/c nude mice; conditions: replicates
[5] = system: PC-3 xenograft; experiment: In vivo antitumor activity, PC-3 xenograft mouse model; parameters: species or system BALB/c nude mice; conditions: for body weight (Figure S10b): 100 mg/kg (block headed at r39); for tumor volume (Figure S10a): 100 mg/kg, in mm³ (unit assumed); for tumor weight (Figure S10c): individual mice

## CCN1CCN(C(=O)c2ccc(Nc3ncc(F)c(-c4ccc5nc(N(C)C)sc5c4)n3)nc2)CC1 [YK-2-69]
[1]; 2 µM, day 4
  optical density: 1.548 and 1.523 and 1.538
[1]; 4 µM, day 0
  Relative proliferation rate mean: 1
  Relative proliferation rate: 1
  optical density: 0.274
[1]; 4 µM, day 1
  Relative proliferation rate mean: 1.161
  Relative proliferation rate: 1.103 and 1.191 (2×)
  optical density: 0.302 and 0.326 (2×)
[1]; 4 µM, day 2
  Relative proliferation rate mean: 1.646
  Relative proliferation rate: 1.545 and 1.706 and 1.687
  optical density: 0.423 and 0.467 and 0.462
[1]; 4 µM, day 3
  Relative proliferation rate mean: 1.9905
  Relative proliferation rate: 2.023 and 1.947 and 2.001
  optical density: 0.554 and 0.533 and 0.548
[1]; 4 µM, day 4
  Relative proliferation rate mean: 3.8824
  Relative proliferation rate: 3.992 and 3.985 and 3.671
  optical density: 1.093 and 1.091 and 1.005
[1]; PC-3 cells, dose-dependent
  cell proliferation, 5-day course/colony (in words): significantly inhibited the cell proliferation
[2]; 0.0049 uM
  Relative proliferation rate (%) mean: 8.6252%
  Relative proliferation rate (%): 6.856% and 10.4024% and 8.617%
  optical density: 0.951 and 0.913 and 0.912
[2]; 0.078 uM
  Relative proliferation rate (%) mean: 28.6346%
  Relative proliferation rate (%): 32.9089% and 24.3376% and 28.6573%
  optical density: 0.685 and 0.771 and 0.712
[2]; 0.3125 uM
  Relative proliferation rate (%) mean: 33.639%
  Relative proliferation rate (%): 36.3369% and 30.9127% and 33.6673%
  optical density: 0.65 and 0.704 and 0.662
[2]; 1.25 uM
  Relative proliferation rate (%) mean: 55.2648%
  Relative proliferation rate (%): 58.57% and 51.9136% and 55.3106%
  optical density: 0.423 and 0.49 and 0.446
[2]; 5 uM
  Relative proliferation rate (%) mean: 68.233%
  Relative proliferation rate (%): 72.38% and 64.0824% and 68.2365%
  optical density: 0.282 and 0.366 and 0.317
[2]; 20 uM
  Relative proliferation rate (%) mean: 73.6982%
  Relative proliferation rate (%): 76.5916% and 70.7556% and 73.7475%
  optical density: 0.239 and 0.298 and 0.262
[2]; 80 uM
  Relative proliferation rate (%) mean: 89.3325%
  Relative proliferation rate (%): 93.7316% and 84.8871% and 89.3788%
  optical density: 0.064 and 0.154 and 0.106
[2]; 22Rv1 cells
  inhibitory activity against proliferation (in words): potent inhibitory activity
[3]; 22Rv1, 0.5 μM
  Cell invasion (cell number): 990 cell number and 970 cell number and 1020 cell number
[3]; 22Rv1, 1 μM
  Cell invasion (cell number): 730 cell number and 680 cell number and 710 cell number
[3]; 22Rv1, 2 μM
  Cell invasion (cell number): 520 cell number and 490 cell number and 509 cell number
[3]; 22Rv1 cells, dose-dependent
  invasion (in words): remarkably inhibited the migration and invasion
[4]; DU145, High dose
  Positive rate ( % ) (Fig. 7f): 15.32% and 14.77% and 16.1%
[4]; DU145, Low dose
  Positive rate ( % ) (Fig. 7f): 20.24% and 19.5% and 21.1%
[5]; day 1, individual mice
  body weight (Figure S10b): 19.2 (2×) and 18.5 and 18.7 and 18.4 and 18.1 and 19.9 and 20.5
  tumor volume (Figure S10a): 77.4864 and 92.5301 and 97.1283 and 101.268 and 98.0398 and 97.468 and 73.886 and 80.3144
[5]; day 3, individual mice, in g (unit assumed)
  body weight (Figure S10b): 19.3 and 18.8 and 19.1 and 19.6 and 18.7 and 18.5 and 20.2 and 21
[5]; day 5, individual mice, in g (unit assumed)
  body weight (Figure S10b): 19.6 and 19.3 and 19.5 and 20 and 19 and 18.8 and 20.4 and 21.3
[5]; day 7, individual mice
  body weight (Figure S10b): 19.7 and 19.2 (2×) and 19.8 and 20.2 and 19.1 and 20.7 and 21.6
  tumor volume (Figure S10a): 219.658 and 275.568 and 365.875 and 209.513 and 299.159 and 296.64 and 231.386 and 330.578
[5]; day 9, individual mice
  body weight (Figure S10b): 19.9 and 19.6 (2×) and 20.3 and 20.4 and 19.2 and 21.1 and 22.1
  tumor volume (Figure S10a): 329.162 and 379.473 and 478.428 and 304.962 and 429.596 and 486.382 and 340.579 and 484.285
[5]; day 11, individual mice, in g (unit assumed)
  body weight (Figure S10b): 20.2 and 19.8 and 20.6 and 20.7 and 19.9 and 19.6 and 21.5 and 22.4
[5]; day 13, individual mice, in g (unit assumed)
  body weight (Figure S10b): 20.7 and 20.1 and 20.9 and 21 and 20.2 and 19.9 and 22 and 22.7
[5]; day 15, individual mice, in g (unit assumed)
  body weight (Figure S10b): 21.2 and 20.6 and 21.3 and 21.4 and 20.5 and 20.2 and 22.4 and 23.1
[5]; day 17, individual mice
  body weight (Figure S10b): 21.5 (2×) and 20.9 and 21.7 and 20.7 and 20.5 and 22.6 and 23.4
  tumor volume (Figure S10a): 566.789 and 632.783 and 710.893 and 478.638 and 663.313 and 687.885 and 541.191 and 725.155
[5]; day 19, individual mice
  body weight (Figure S10b): 21.6 and 21.3 and 22.1 and 21.8 and 20.9 (2×) and 22.9 and 23.6
  tumor volume (Figure S10a): 626.915 and 695.75 and 762.842 and 529.26 and 724.582 and 714.002 and 593.545 and 775.769
[5]; day 21, individual mice, in g (unit assumed)
  body weight (Figure S10b): 21.9 and 21.7 and 22.5 and 22 and 21.1 and 20.9 and 23.3 and 24.1
[5]; day 23, individual mice, in g (unit assumed)
  body weight (Figure S10b): 22.2 and 21.9 and 22.8 and 22.5 and 21.6 and 21.2 and 23.7 and 24.4
[5]; day 25, individual mice, in g (unit assumed)
  body weight (Figure S10b): 22.4 and 22.2 and 23 and 22.9
[5]; day 3, individual mice
  tumor volume (Figure S10a): 115.765 and 144.425 and 170.933 and 124.316 and 162.987 and 146.332 and 130.957 and 150.238
[5]; day 5, individual mice
  tumor volume (Figure S10a): 154.192 and 209.47 and 269.793 and 167.67 and 219.907 and 205.492 and 169.178 and 227.654
[5]; day 11, individual mice
  tumor volume (Figure S10a): 425.31 and 450.313 and 557.222 and 355.841 and 497.266 and 558.451 and 389.654 and 598.443
[5]; day 13, individual mice
  tumor volume (Figure S10a): 470.277 and 505.24 and 614.643 and 398.947 and 552.456 and 554.825 and 438.407 and 647.336
[5]; day 15, individual mice
  tumor volume (Figure S10a): 505.825 and 567.155 and 666.998 and 434.631 and 595.348 and 608.437 and 469.076 and 655.028
[5]; day 21, individual mice
  tumor volume (Figure S10a): 664.022 and 757.202 and 792.305 and 567.096 and 783.549 and 751.035 and 675.845 and 837.844
[5]; day 23, individual mice
  tumor volume (Figure S10a): 712.611 and 799.725 and 853.619 and 600.587 and 832.37 and 731.016 and 739.798 and 963.73
[5]; day 25, individual mice
  tumor volume (Figure S10a): 761.381 and 859.669 and 897.54 and 641.932
[5]; High dose, in g (unit assumed)
  tumor weight (Figure S10c): 0.61 and 0.52 and 0.5 and 0.55 and 0.62 and 0.53 and 0.74 and 0.7
[5]; Low dose, in g (unit assumed)
  tumor weight (Figure S10c): 0.79 and 0.89 and 1.1 and 0.91 and 0.71 and 0.92 and 0.81 and 0.88
[5]; PC-3 xenograft, 100 or 200 mg/kg orally every day
  tumor growth (in words): significantly inhibited tumor growth
[5]; PC-3 xenograft, high dose (200 mg/kg)
  tumor volume (in words): decrease tumor volume
